Values joined by “and” are separate entries in the source; they are usually repeats but may differ in a detail not shown here. Equal values may be shown once.
Key:
[1] = biological target: T1, FITC-labeled CFTRpS753pS768 peptide (no 14-3-3) (Homo sapiens, UniProt P13569); assay: Dose-response FP control assay in the absence of 14-3-3; assay type: binding; settings: No 14-3-3
T1 construct: made in house; host or cells: synthetic peptide
In short: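 Control run without 14-3-3: FITC-CFTR pS753/pS768 peptide (100 nM or 10 nM) with compound titrated in twofold dilutions in 10 mM HEPES pH 7.4, 150 mM NaCl, 0.1% Tween20, 1 mg/mL BSA. Fluorescence polarization read at ex 485/em 535 nm, background subtracted, n = 3. Curves fitted by four-parameter log(agonist) vs. response.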

[2] = biological target: T2, 14-3-3β/CFTRpS753pS768 complex (Homo sapiens, UniProt P13569+P31946); assay: FP assay, 14-3-3β titration at constant compound concentration (apparent KD); assay type: binding
T2 construct: His6 (cleaved yes); made in house; peptide synthetic
T2 sequence (P31946 whole entry): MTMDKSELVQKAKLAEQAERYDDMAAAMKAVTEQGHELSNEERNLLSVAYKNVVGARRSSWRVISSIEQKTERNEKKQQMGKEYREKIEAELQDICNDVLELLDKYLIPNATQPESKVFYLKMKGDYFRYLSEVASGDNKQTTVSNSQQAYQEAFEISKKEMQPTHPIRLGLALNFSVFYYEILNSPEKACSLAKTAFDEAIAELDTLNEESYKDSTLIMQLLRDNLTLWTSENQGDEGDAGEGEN
T2 sequence (P13569 747-774 limits assumed): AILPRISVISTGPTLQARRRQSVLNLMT
Procedure: FC-A (100 µM) was added as a positive control and DMSO as the negative control. […] Background polarization was subtracted from all values, n = 3 technical replicates. […] Source data are provided as a Source Data file. […]
The FITC-labeled peptides were dissolved in FP buffer (10 mM HEPES pH 7.4, 150 mM NaCl, 0.1% Tween20, 1 mg/mL BSA) to a final concentration of 100 nM or 10 nM. […] The dilution series were made in 384 Corning Black Round Bottom well plates and their polarization was measured with a Tecan Infinite F500 plate reader (ex. = 485 nm, em. = 535 nm). The method of fitting of the curves was: “log(agonist) vs. response – Variable slope (four parameters)” from GraphPad Prism. The equation is Y = Bottom + (Top-Bottom)/(1 + 10^((LogEC50-X)*HillSlope)).
from the hit validation library.
f the compound, 100 µM FC-A, or both compound and FC-A, 100 µM each. Background polarization was subtracted f
rom all values, n=3 technical replicates.
Source data are provided as a Source Data file.

SMILES: CC1NC(=O)C(CCCNC(=N)N)NC(=O)C2CCCN2Cc2cccc(c2)-c2ccccc2CNC(=O)C(CCCNC(=N)N)NC1=O (stereo not shown) [CY007476]
- FP signal ([1]; compound 476.8 pM): 1
- FP signal ([1]; compound 953.7 pM): 3
- FP signal ([1]; compound 1.90735e-9 M): 2
- FP signal ([1]; compound 3.8147e-9 M): 5
- FP signal ([1]; compound 7.6294e-9 M): 5
- FP signal ([1]; compound 1.52588e-8 M): 4
- FP signal ([1]; compound 3.05176e-8 M): 6
- FP signal ([1]; compound 6.10352e-8 M): 6
- FP signal ([1]; compound 1.2207e-7 M): 3
- FP signal ([1]; compound 2.44141e-7 M): 4
- FP signal ([1]; compound 4.88281e-7 M): 4
- FP signal ([1]; compound 9.76563e-7 M): 5
- FP signal ([1]; compound 1.95313e-6 M): 5
- FP signal ([1]; compound 3.90625e-6 M): 6
- FP signal ([1]; compound 7.8125e-6 M): 10
- FP signal ([1]; compound 1.5625e-5 M): 13
- FP signal ([1]; compound 3.125e-5 M): 24
- FP signal ([1]; compound 6.25e-5 M): 59
- FP signal ([1]; compound 0.000125 M): 124
- FP signal ([1]; compound 0.00025 M): 186
- FP signal ([1]; compound 0.0005 M): 230
- FP signal ([1]; compound 0.001 M): 257
- Fluorescence polarization signal, 14-3-3β titration ([2]; CY compound (100 μM), 14-3-3β concentration 7.62939e-9 M): 3.667 and 2.667 and 4.667
- Fluorescence polarization signal, 14-3-3β titration ([2]; CY compound (100 μM), 14-3-3β concentration 3.05176e-8 M): 5.667 and 6.667
- Fluorescence polarization signal, 14-3-3β titration ([2]; CY compound (100 μM), 14-3-3β concentration 2.44141e-7 M): 8.667 and 10.6667 and 11.6667
- Fluorescence polarization signal, 14-3-3β titration ([2]; CY compound (100 μM), 14-3-3β concentration 4.88281e-7 M): 12.6667 and 17.6667 and 16.6667
- Fluorescence polarization signal, 14-3-3β titration ([2]; CY compound (100 μM), 14-3-3β concentration 7.8125e-6 M): 36.6667 and 60.6667 and 59.6667
- Fluorescence polarization signal, 14-3-3β titration ([2]; CY compound (100 μM), 14-3-3β concentration 1.5625e-5 M): 49.6667 and 67.6667 and 72.6667
- Fluorescence polarization signal, 14-3-3β titration ([2]; CY compound (100 μM), 14-3-3β concentration 3.125e-5 M): 68.6667 and 82.6667 and 79.6667
- Fluorescence polarization signal, 14-3-3β titration ([2]; CY compound (100 μM), 14-3-3β concentration 6.25e-5 M): 87.6667 and 91.6667 and 95.6667
- Fluorescence polarization signal, 14-3-3β titration ([2]; CY compound (100 μM), 14-3-3β concentration 0.000125 M): 105.667 and 110.667 and 108.667
- Fluorescence polarization signal, 14-3-3β titration ([2]; CY compound (100 μM), 14-3-3β concentration 0.00025 M): 127.667 and 126.667
- Fluorescence polarization signal, 14-3-3β titration ([2]; CY compound (100 μM), 14-3-3β concentration 0.0005 M): 145.667 and 146.667 and 147.667
- Fluorescence polarization signal, 14-3-3β titration ([2]; FC-A + CY compound, 14-3-3β concentration 119.2 pM): 1.667
- Fluorescence polarization signal, 14-3-3β titration ([2]; FC-A + CY compound, 14-3-3β concentration 3.05176e-8 M): 5.667 and 8.667
- Fluorescence polarization signal, 14-3-3β titration ([2]; FC-A + CY compound, 14-3-3β concentration 6.10352e-8 M): 6.667 and 12.6667 and 9.667
- Fluorescence polarization signal, 14-3-3β titration ([2]; FC-A + CY compound, 14-3-3β concentration 1.2207e-7 M): 20.6667 and 16.6667 and 13.6667
- Fluorescence polarization signal, 14-3-3β titration ([2]; FC-A + CY compound, 14-3-3β concentration 2.44141e-7 M): 27.6667 and 26.6667
- Fluorescence polarization signal, 14-3-3β titration ([2]; FC-A + CY compound, 14-3-3β concentration 4.88281e-7 M): 49.6667 and 43.6667
- Fluorescence polarization signal, 14-3-3β titration ([2]; FC-A + CY compound, 14-3-3β concentration 9.76563e-7 M): 71.6667 and 68.6667 and 64.6667
- Fluorescence polarization signal, 14-3-3β titration ([2]; FC-A + CY compound, 14-3-3β concentration 1.95313e-6 M): 94.6667 and 91.6667 and 86.6667
- Fluorescence polarization signal, 14-3-3β titration ([2]; FC-A + CY compound, 14-3-3β concentration 3.90625e-6 M): 110.667 and 106.667 and 104.667
- Fluorescence polarization signal, 14-3-3β titration ([2]; FC-A + CY compound, 14-3-3β concentration 7.8125e-6 M): 123.667 and 119.667 and 117.667
- Fluorescence polarization signal, 14-3-3β titration ([2]; FC-A + CY compound, 14-3-3β concentration 1.5625e-5 M): 128.667 and 130.667
- Fluorescence polarization signal, 14-3-3β titration ([2]; FC-A + CY compound, 14-3-3β concentration 3.125e-5 M): 139.667 and 137.667 and 141.667
- Fluorescence polarization signal, 14-3-3β titration ([2]; FC-A + CY compound, 14-3-3β concentration 6.25e-5 M): 145.667 and 146.667 and 143.667
- Fluorescence polarization signal, 14-3-3β titration ([2]; FC-A + CY compound, 14-3-3β concentration 0.000125 M): 155.667 and 156.667
- Fluorescence polarization signal, 14-3-3β titration ([2]; FC-A + CY compound, 14-3-3β concentration 0.00025 M): 165.667 and 164.667 and 162.667
- Fluorescence polarization signal, 14-3-3β titration ([2]; FC-A + CY compound, 14-3-3β concentration 0.0005 M): 178.667 and 174.667 and 172.667

From paper PMC9226124, “Macrocycle-stabilization of its interaction with 14-3-3 increases plasma membrane localization and activity of CFTR” (Nature Communications, 2022)
